US20060025566A1, “Macrocyclic modulators of the ghrelin receptor” (Tranzyme Pharma Inc., priority 2003, published 2006)
Read-outs that look alike come from different tables or passages of the source.

Biological target: T1, human growth hormone secretagogue receptor (hGHS-R1a) (Homo sapiens, UniProt Q92847)
T1 construct: purchased PerkinElmer BioSignal #RBHGHSM, lot#1887; host or cells: HEK-293, stably transfected (membranes)
Assay: Competitive radioligand binding assay (ghrelin receptor), [125I]-ghrelin displacement on GHS-R/HEK 293 membranes
Conditions: [125I]-ghrelin competition, GHS-R/HEK 293 membranes
Protocol: The competitive binding assay at the human growth hormone secretagogue receptor (hGHS-R1a) was carried out analogously to assays described in the literature.
Multiscreen Harvest plates-GF/C (Millipore, #MAHFC 1H60) • 4. […] Bottom seal (Millipore, #MATAH0P00) • 7. […] Binding Buffer: 25 mM Hepes (pH 7.4), 1 mM CaCl2, 5 mM MgCl2, 2.5 mM EDTA, 0.4% BSA Assay Volumes
Competition experiments were performed in a 300 μl filtration assay format. • 1. 220 μL of membranes diluted in binding buffer • 2. 40 μL of compound diluted in binding buffer • 3. […] Compound Handling
Compounds were provided frozen on dry ice at a stock concentration of 10 mM diluted in 100% DMSO and stored at −80° C. until the day of testing. On the test day, compounds were allowed to thaw at rt O/N and then diluted in assay buffer according to the desired test concentrations.
Plates were sealed with TopSeal-A, vortexed gently and incubated at rt for 30 min. The reaction was arrested by filtering samples through Multiscreen Harvest plates (pre-soaked in 0.5% polyethyleneimine) using a Tomtec Harvester, washed 9 times with 500 μL of cold 50 mM Tris-HCl (pH 7.4, 4° C.), and then plates were air-dried in a fumehood for 30 min. A bottom seal was applied to the plates prior to the addition of 25 μL of MicroScint-0 to each well. […] Results were expressed as counts per minute (cpm).
Data were analyzed by GraphPad Prism (GraphPad Software, San Diego, Calif.) using a variable slope non-linear regression analysis.
• 1. […] Key Aspects of Method • 1. […] Results

[1] = binding activity at the human ghrelin receptor, read-out: Ki
[2] = Table 3A, read-out: Binding Activity at the Human Ghrelin Receptor

T1 sequence (Q92847 whole entry): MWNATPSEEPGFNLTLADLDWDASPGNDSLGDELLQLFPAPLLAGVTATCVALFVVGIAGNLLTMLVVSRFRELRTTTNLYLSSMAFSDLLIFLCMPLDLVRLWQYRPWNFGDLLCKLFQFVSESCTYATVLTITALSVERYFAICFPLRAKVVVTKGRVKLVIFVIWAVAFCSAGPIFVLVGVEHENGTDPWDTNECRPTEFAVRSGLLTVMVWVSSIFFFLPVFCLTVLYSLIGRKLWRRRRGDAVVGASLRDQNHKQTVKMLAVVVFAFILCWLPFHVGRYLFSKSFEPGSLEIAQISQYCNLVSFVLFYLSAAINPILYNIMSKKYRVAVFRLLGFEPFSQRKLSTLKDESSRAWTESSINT

Compound | Ki [1] [nM] | Ki [2] [nM]
CCC[C@@H]1NCCOc2ccccc2CCCNC(=O)CNC(=O)CN(C)C1=O [compound 51] | > 10000 | 
CCCC[C@H]1NC(=O)CN(C)C(=O)[C@H](CCC)NCCOc2ccccc2CCCNC1=O [compound 52] | 100 to 1000 | 
CCC[C@@H]1NCCOc2ccccc2CCCNC(=O)[C@@H](CCCN)NC(=O)CN(C)C1=O [compound 53] | > 10000 | 
CCC[C@@H]1NCCOc2ccccc2CCCNC(=O)[C@@H](Cc2ccccc2)NC(=O)[C@H](Cc2ccccc2)NC1=O [compound 64] | > 10000 | 
CCC[C@@H]1NCCOc2ccccc2CCCNC(=O)[C@@H](Cc2ccccc2)NC(=O)C2(CCCC2)NC1=O [compound 67] | 100 to 1000 | 
CCCC1NCCOCCNC(=O)C(Cc2ccccc2)NC(=O)CN(C)C1=O (centres unmarked) [compound 81] | > 10000 | 
CCCC1NCCC#CCCNC(=O)C(Cc2ccccc2)NC(=O)CN(C)C1=O (centres unmarked) [compound 82] | > 10000 | 
CCCC1NCCC=CCCNC(=O)C(Cc2ccccc2)NC(=O)CN(C)C1=O (centres unmarked) [compound 83] | > 10000 | 
CCCC1NCc2cccc(c2)CNC(=O)C(Cc2ccccc2)NC(=O)CN(C)C1=O (centres unmarked) [compound 84] | 1000 to 10000 | 
CCCC1NCc2cccc(c2)CCNC(=O)C(Cc2ccccc2)NC(=O)CN(C)C1=O (centres unmarked) [compound 85] | > 10000 | 
CCCC1NCc2csc(n2)CNC(=O)C(Cc2ccccc2)NC(=O)CN(C)C1=O (centres unmarked) [compound 86] | > 10000 | 
CC(C)C[C@@H]1NCCOc2ccccc2CCCNC(=O)[C@H](Cc2ccc(O)cc2)NC(=O)C2(CCCC2)NC1=O [compound 88] | 1000 to 10000 | 
CC(C)C[C@@H]1NCCOc2ccccc2CCCNC(=O)[C@H](Cc2c[nH]c3ccccc23)NC(=O)C2(CCCC2)NC1=O [compound 89] | 1000 to 10000 | 
CC(C)C[C@@H]1NCCOc2ccccc2CCCNC(=O)[C@H](CCc2ccccc2)NC(=O)C2(CCCC2)NC1=O [compound 90] | 1000 to 10000 | 
CC(C)CC1NCCOc2ccccc2CCCNC(=O)C(CCCCN)NC(=O)C2(CCCC2)NC1=O (centres unmarked) [compound 91] | > 10000 | 
CC(C)C[C@@H]1NCCOc2ccccc2CCCNC(=O)[C@H](CCC(=O)O)NC(=O)C2(CCCC2)NC1=O [compound 92] | > 10000 | 
C[C@@H]1NCCOc2ccccc2CCCNC(=O)[C@H](Cc2ccccc2)NC(=O)C2(CCCC2)NC1=O [compound 100] | 100 to 1000 | 
CCCC[C@@H]1NCCOc2ccccc2CCCNC(=O)[C@H](Cc2ccccc2)NC(=O)C2(CCCC2)NC1=O [compound 101] | 100 to 1000 | 
O=C1NC2(CCCC2)C(=O)N[C@@H](Cc2ccccc2)C(=O)NCCCc2ccccc2OCCN[C@H]1Cc1ccccc1 [compound 102] | 100 to 1000 | 
NCCCC[C@@H]1NCCOc2ccccc2CCCNC(=O)[C@H](Cc2ccccc2)NC(=O)C2(CCCC2)NC1=O [compound 103] | > 10000 | 
O=C(O)CC[C@@H]1NCCOc2ccccc2CCCNC(=O)[C@H](Cc2ccccc2)NC(=O)C2(CCCC2)NC1=O [compound 104] | > 10000 | 
O=C1NC2(CCCC2)C(=O)N[C@@H](Cc2ccccc2)C(=O)NCCCc2ccccc2OCCN[C@H]1CO [compound 105] | 100 to 1000 | 
O=C1CNCCOc2ccccc2CCCNC(=O)C(Cc2ccccc2)NC(=O)C2(CCCC2)N1 (centres unmarked) [compound 112] | 1000 to 10000 | 
CC(C)CC1NCc2ccc(cc2)CCNC(=O)C(Cc2ccccc2)NC(=O)C2(CCCC2)NC1=O (centres unmarked) [compound 115] | > 10000 | 
O=C1NC2(CCCC2)C(=O)NC(Cc2ccccc2)C(=O)NCC=Cc2ccccc2OCCNC1Cc1ccc(F)cc1 (centres unmarked) [compound 125] | > 10000 | 
COc1ccc(CC2NCCOc3ccccc3C=CCNC(=O)C(Cc3ccccc3)NC(=O)C3(CCCC3)NC2=O)cc1 (centres unmarked) [compound 127] | 100 to 1000 | 
O=C1NC2(CCCC2)C(=O)NC(Cc2ccccc2)C(=O)NCC=Cc2ccccc2OCCNC1Cc1cccc2ccccc12 (centres unmarked) [compound 130] | 1000 to 10000 | 
O=C1NC2(CCCC2)C(=O)N[C@@H](Cc2ccccc2)C(=O)NC/C=C/c2ccccc2OCCN[C@H]1Cc1cccnc1 [compound 132] | > 1000 | 
CCC(C)C1NC(=O)C2(CCCC2)NC(=O)C(CC(C)C)NCCOc2ccccc2C=CCNC1=O (centres unmarked) [compound 166] |  | > 10000
CCC(C)C1NC(=O)C2(CCCC2)NC(=O)C(CC(C)C)NCCOc2ccccc2C=CCNC1=O (centres unmarked) [compound 167] |  | > 10000

Second part, the molecule after the results:

Ki [1] [nM] | Ki [2] [nM] | Compound
1000 to 10000 |  | CCC[C@@H]1NCCOc2ccccc2CCCNC(=O)[C@@H](Cc2ccccc2)NC(=O)[C@H](C)NC1=O [compound 59]
100 to 1000 |  | CCC[C@@H]1NCCOc2ccccc2CCCNC(=O)[C@@H](Cc2ccccc2)NC(=O)[C@@H](C)NC1=O [compound 60]
100 to 1000 |  | CCC[C@@H]1NCCOc2ccccc2CCCNC(=O)[C@@H](Cc2ccccc2)NC(=O)CNC1=O [compound 61]
1000 to 10000 |  | CCC[C@@H]1NCCOc2ccccc2CCCNC(=O)[C@@H](Cc2ccccc2)NC(=O)[C@H](CC(C)C)NC1=O [compound 62]
> 10000 |  | CCC[C@@H]1NCCOc2ccccc2CCCNC(=O)[C@@H](Cc2ccccc2)NC(=O)[C@@H](CC(C)C)NC1=O [compound 63]
1000 to 10000 |  | CCC[C@@H]1NCCOc2ccccc2CCCNC(=O)[C@@H](Cc2ccccc2)NC(=O)[C@H](CCCCN)NC1=O [compound 68]
1000 to 10000 |  | C[C@@H]1NCCOc2ccccc2CCCNC(=O)[C@@H](Cc2ccccc2)NC(=O)CN(C)C1=O [compound 72]
> 10000 |  | CN1CC(=O)N[C@H](Cc2ccccc2)C(=O)NCCCc2ccccc2OCCN[C@@H](CCC(=O)O)C1=O [compound 73]
1000 to 10000 |  | CN1CC(=O)N[C@H](Cc2ccccc2)C(=O)NCCCc2ccccc2OCCN[C@@H](CCCCN)C1=O [compound 74]
> 10000 |  | CN1CC(=O)N[C@H](Cc2ccccc2)C(=O)NCCCc2ccccc2OCCN[C@@H](CO)C1=O [compound 76]
> 10000 |  | CN1CC(=O)NC(Cc2ccccc2)C(=O)NCCCc2ccccc2OCCNCC1=O (centres unmarked) [compound 80]
1000 to 10000 |  | CC(C)CC1NCCOc2ccccc2CCCNC(=O)C(Cc2ccccc2)NC(=O)C(C)NC1=O (centres unmarked) [compound 93]
1000 to 10000 |  | CC(C)C[C@@H]1NCCOc2ccccc2CCCNC(=O)[C@H](Cc2ccccc2)NC(=O)[C@@H](C)NC1=O [compound 94]
1000 to 10000 |  | CC(C)C[C@@H]1NCCOc2ccccc2CCCNC(=O)[C@H](Cc2ccccc2)NC(=O)C(C)(C)NC1=O [compound 95]
> 10000 |  | CC(C)CC1NCCOc2ccccc2CCCNC(=O)C(Cc2ccccc2)NC(=O)C2(CCCC2)NC1=O (centres unmarked) [compound 96]
> 10000 |  | CC(C)C[C@H]1NCCOc2ccccc2CCCNC(=O)[C@@H](Cc2ccccc2)NC(=O)C2(CCCC2)NC1=O [compound 98]

Ki [1] [nM] | Ki [2] [nM] | Compound
10 to 100 |  | CC(C)C[C@@H]1NCCOc2ccccc2CCCNC(=O)[C@@H](Cc2ccccc2)NC(=O)[C@@H](C)N(C)C1=O [compound 118]
100 to 1000 |  | C[C@@H]1C(=O)N[C@H](Cc2ccccc2)C(=O)NCCCc2ccccc2OCCN[C@@H]([C@@H](C)O)C(=O)N1C [compound 119]
10 to 100 |  | CO[C@H](C)[C@@H]1NCCOc2ccccc2CCCNC(=O)[C@@H](Cc2ccccc2)NC(=O)[C@@H](C)N(C)C1=O [compound 120]
> 10000 |  | C[C@@H]1C(=O)N[C@H](Cc2ccccc2)C(=O)NCCCc2ccccc2OCCNC2(CC2)C(=O)N1C [compound 121]
100 to 1000 |  | CCC(C)C1NCCOc2ccccc2CCCNC(=O)C(Cc2ccccc2)NC(=O)C(C(C)C)N(C)C1=O (centres unmarked) [compound 144]
> 1000 |  | CCC(C)C1NCCOc2ccccc2CCCNC(=O)C(Cc2ccccc2)NC(=O)C(CC(C)C)N(C)C1=O (centres unmarked) [compound 147]
> 1000 |  | CC[C@H](C)[C@@H]1NCCOc2ccccc2CCCNC(=O)[C@@H](Cc2ccccc2)NC(=O)[C@H](CC(C)C)N(C)C1=O [compound 148]
1000 to 10000 |  | CCC(C)C1NCCOc2ccccc2CCCNC(=O)C(Cc2ccccc2)NC(=O)C(C(C)CC)N(C)C1=O (centres unmarked) [compound 149]
> 1000 |  | CC[C@H](C)[C@@H]1NCCOc2ccccc2CCCNC(=O)[C@@H](Cc2ccccc2)NC(=O)[C@@H](CO)NC1=O [compound 151]
 | 10 to 100 | CC[C@H](C)[C@@H]1NCCOc2ccccc2CCCNC(=O)[C@@H](CCc2ccccc2)NC(=O)[C@@H](C)N(C)C1=O [compound 169]
 | 10 to 100 | CC[C@H](C)[C@@H]1NCCOc2ccccc2CCCNC(=O)[C@@H](Cc2ccncc2)NC(=O)[C@@H](C)N(C)C1=O [compound 171]
 | > 10000 | CCC1NC(=O)C(C)N(C)C(=O)C(C(C)CC)NCCOc2ccccc2CCCNC1=O (centres unmarked) [compound 172]
 | 100 to 1000 | CCCC1NC(=O)C(C)N(C)C(=O)C(C(C)CC)NCCOc2ccccc2CCCNC1=O (centres unmarked) [compound 173]
 | 100 to 1000 | CC[C@H](C)[C@@H]1NCCOc2ccccc2CCCNC(=O)[C@@H](C(C)C)NC(=O)[C@@H](C)N(C)C1=O [compound 174]
 | 100 to 1000 | CC[C@@H](C)[C@H]1NC(=O)[C@@H](C)N(C)C(=O)[C@H]([C@@H](C)CC)NCCOc2ccccc2CCCNC1=O [compound 175]
 | > 10000 | CC[C@H]1NC(=O)[C@@H](C)N(C)C(=O)[C@H]([C@@H](C)CC)NCCOc2ccccc2CCCNC1=O [compound 205]
